Biological target: T1, Stat5a (Homo sapiens, UniProt P42229)
T1 sequence (P42229 1-794): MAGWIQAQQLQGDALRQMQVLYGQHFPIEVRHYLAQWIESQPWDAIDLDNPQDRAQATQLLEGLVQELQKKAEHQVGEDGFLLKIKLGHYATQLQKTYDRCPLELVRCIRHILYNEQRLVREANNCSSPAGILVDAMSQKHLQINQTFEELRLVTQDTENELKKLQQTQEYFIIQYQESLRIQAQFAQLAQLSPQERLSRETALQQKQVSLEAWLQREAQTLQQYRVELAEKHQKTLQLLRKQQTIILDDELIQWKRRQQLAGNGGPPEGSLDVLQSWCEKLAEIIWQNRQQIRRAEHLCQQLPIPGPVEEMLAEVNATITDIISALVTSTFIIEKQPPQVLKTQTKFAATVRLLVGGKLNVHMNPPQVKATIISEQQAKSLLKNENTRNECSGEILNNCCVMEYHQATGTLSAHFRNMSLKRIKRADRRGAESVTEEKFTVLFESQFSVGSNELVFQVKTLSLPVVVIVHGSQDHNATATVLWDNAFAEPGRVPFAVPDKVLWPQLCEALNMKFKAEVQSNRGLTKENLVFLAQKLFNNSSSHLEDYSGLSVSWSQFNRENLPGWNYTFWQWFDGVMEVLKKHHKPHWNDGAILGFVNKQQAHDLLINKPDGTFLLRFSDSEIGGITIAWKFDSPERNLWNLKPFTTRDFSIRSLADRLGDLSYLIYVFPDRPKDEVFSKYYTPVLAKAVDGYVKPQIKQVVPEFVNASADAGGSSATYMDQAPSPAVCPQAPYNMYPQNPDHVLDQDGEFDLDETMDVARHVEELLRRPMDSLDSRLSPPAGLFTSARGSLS
Experiment: Prolactin-induced Stat5a phosphorylation in CWR22Rv1 prostate cells (immunoprecipitation/Western blot)
Assay type: cell-based
Conditions: CWR22Rv1, 12, 25, 50 and 100 μM for 2 h, then 10 nM Prl 30 minutes
Experimental: CWR22Rv1 cells were starved for 24 h in serum-free medium, treated with Compound 2 at 12, 25, 50 and 100 μM concentrations for 2 h, followed by stimulation with 10 nM Prl for 30 minutes. Stat5a was immunoprecipitated with anti-Stat5a pAb (4 gg/ml, Millipore, Billerica, Mass.). Immunoprecipitates of CWR22Rv1 cells were blotted with anti-phospho-Stat5ab mAb (1 μg/ml, Advantex BioReagents, Conroe, Tex.) or anti-Stat5a/b mAb (BD Biosciences, San Jose, Calif.). Whole cell lysates were immunoblotted with anti-actin pAb for loading control.
The protocol in more detail comprised the following. Cell pellets were solubilized in lysis buffer [10 mM Tris-HCl (pH 7.6), 5 mM EDTA, 50 mM sodium chloride, 30 mM sodium pyrophosphate, 50 mM sodium fluoride, 1 mM sodium orthovanadate, 1% Triton X-100, 1 mM phenylmethylsulfonyl fluoride, 5 μg/ml aprotinin, 1 μg/ml pepstatin A, and 2 μg/ml leupeptin], rotated end-over-end at 4° C. for 60 min, and insoluble material was pelleted at 12,000×g for 30 min at 4° C. The protein concentrations of clarified cell lysates were determined by simplified Bradford method (Bio-Rad Laboratories, Hercules, Calif.). Stat5a was immunoprecipitated from whole cell lysates with anti-Stat5a (4 μl/ml; Millipore, Billerica, Mass.) pAb. Antibody was captured by incubation for 60 min with protein A-Sepharose beads (Amersham Pharmacia Biotech, Piscataway, N.J.). […]

effect on Stat5a phosphorylation: inhibits Stat5a phosphorylation
Structure (SMILES): OC[C@H]1O[C@@H](n2cnc3c(NNc4ccccc4)ncnc32)[C@H](O)[C@@H]1O [Compound 2, (2R,3S,4R,5R)-2-(hydroxymethyl)-5-(6-(2-phenylhydrazinyl)-9H-purin-9-yl)tetrahydrofuran-3,4-diol]
